We go through 1 substance from patent US11951148B1 (Fleurir ABX LLC, priority 2014, dated 2024).

Common to all, as to format: cell-based
One assay deals with A. baumannii 160S. Kind of assay: MIC, CLSI broth microdilution assay. The following applies: agent alone. Here is the method:
(§1) For the described examples, reference and clinical isolates were generally obtained from known sources, including American Type Culture Collection (Manasas, VA.) or International Health Management Associates, Inc. (Schaumberg, IL). Bacteria were cultured in suitable broth, concentrated by centrifugation, and cryopreserved in the same medium, generally containing 20% glycerol by holding at −80° C. Every two weeks a small amount of frozen culture was removed aseptically and streaked on fresh agar plates to act as a working inoculum. Following overnight growth at about 37° C., the plates were wrapped in parafilm and held at about 4° C. Bacteria (4-5 colonies) were then aseptically transferred into broth growth medium for assays as needed.
(§2) Minimal inhibitory concentration (MIC) assays were performed in a manner as described for the CLSI broth microdilution assay guideline (see, Clinical Laboratory Standards Institute, 2009, Methods for Dilution Antimicrobial Susceptibility Tests for Bacteria That Grow Aerobically; Approved Standard, Eighth Edition, M07-A8, Vol. 29, No. 2). Antibiotics were dissolved, and then serially diluted in suitable broth across the assay plate in the classical 2-fold geometric format. Antibiotic concentrations in each well at this point were double what the final assay concentration would be. Bacterial inocula were prepared by swabbing several colonies from a fresh agar plate, and resuspending the bacteria to a density that was the 0.5 McFarland turbidity standard (generally close or equivalent to 1×10^8 CFU/mL). The bacterial inocula were diluted in the broth to about 1×10^6 CFU/mL, and a suitable amount, e.g., 100 μL was overlayered onto the wells containing the diluted antibiotics. Following incubation as per the guideline, results were recorded as growth or no growth, and the lowest concentration of antibiotic where no growth was observed was declared the MIC.
Background: Broth dilution looks for growth in wells or tubes with falling amounts of substance.

Assay [1] concerns E. coli 7623. Kind of assay: MIC, CLSI broth microdilution assay. The settings on record: agent alone. As for the experimental part: as §1, §2
The subject of the next assay is E. coli ATCC 25922. Briefly: MIC, CLSI broth microdilution assay. The following applies: agent alone. Here is the method: as §1, §2
Assay [2] deals with K. pneumoniae 1161486. Kind of assay: MIC, CLSI broth microdilution assay. The following applies: agent alone. Here is the method:
as §1, §2

The subject of assay [3] is K. pneumoniae 170S. Briefly: MIC, CLSI broth microdilution assay. The settings on record: agent alone. As for the experimental part:
as §1, §2

The subject of assay [4] is E. coli 7623. Briefly: Synergy checkerboard assay of antibacterial combinations. The settings on record: in combination with A-24. Here is the method:
as §1
as §2, with “Bacterial inocula were prepared by swabbing several colonies from a fresh agar plate, and resuspending the bacteria to a density that was the 0.5 McFarland turbidity standard (generally close or equivalent to 1×10^8 CFU/mL). The bacterial inocula were diluted in the broth to about 1×10^6 CFU/mL, and a suitable amount, e.g., 100 μL was overlayered onto the wells containing the diluted antibiotics.” left out
(§3) To assay for synergy of antibacterial combinations, a recognized synergy checkerboard assay, adapted from the CLSI guideline microdilution assay, was utilized (see Eliopoulos, G. M., and Moellering, R. C, Jr., 1996. Antimicrobial Combinations, pg. 330-396. In: Lorian, V. (Ed.), Antibiotics in Laboratory Medicine, 4th Ed., Williams & Wilkins; Baltimore, MD). […] The fractional inhibitory concentration, which provides the mathematical definition (as shown below) is calculated to determine whether antibacterial synergy was observed. […]

In assay [5] the test system is K. pneumoniae 1161486. The description is as above. The settings on record: in combination with A-24. Here is the method:
as §1
as §2, with “Bacterial inocula were prepared by swabbing several colonies from a fresh agar plate, and resuspending the bacteria to a density that was the 0.5 McFarland turbidity standard (generally close or equivalent to 1×10^8 CFU/mL). The bacterial inocula were diluted in the broth to about 1×10^6 CFU/mL, and a suitable amount, e.g., 100 μL was overlayered onto the wells containing the diluted antibiotics.” left out
as §3

Assay [6] concerns K. pneumoniae 170S. Described as above. The following applies: in combination with A-24. As for the experimental part: as §1
as §2, with “Bacterial inocula were prepared by swabbing several colonies from a fresh agar plate, and resuspending the bacteria to a density that was the 0.5 McFarland turbidity standard (generally close or equivalent to 1×10^8 CFU/mL). The bacterial inocula were diluted in the broth to about 1×10^6 CFU/mL, and a suitable amount, e.g., 100 μL was overlayered onto the wells containing the diluted antibiotics.” left out
as §3

As for pristinamycin, the minimal inhibitory concentration (MIC) (as a rule, the lowest concentration that inhibits growth of the organism) in the assay with A. baumannii 160S is 128 µg/mL; against E. coli 7623 [1], 64 µg/mL; in the assay on E. coli ATCC 25922, 64 µg/mL; in the assay on K. pneumoniae 1161486 [2], greater than 128 µg/mL; with K. pneumoniae 170S [3] it was greater than 128 µg/mL. The entries for the “MIC of Pristinamycin in Combo” value in the assay on E. coli 7623 [4], with K. pneumoniae 1161486 [5] and in the assay with K. pneumoniae 170S [6] were 32 µg/mL, no more than 2 µg/mL and 2 µg/mL, respectively.
